We go through 1 compound from ChEMBL document CHEMBL5625228, “Design, synthesis, and bioactivity evaluation of novel amide/sulfonamide derivatives as potential anti-inflammatory agents against acute lung injury and ulcerative colitis” (Eur J Med Chem, 2023).

Series [1] concerns J774.A1. In words: Antiinflammatory activity against LPS-induced mouse J774.A1 cells assessed as reduction in p65 nuclear translocation at 20 uM incubated for 2 hrs by DAPI staining based immunofluorescence analysis. The class given is functional, cell-based.
The subject of series [2] is J774.A1. In words: Antiinflammatory activity against LPS-induced mouse J774.A1 cells assessed as downregulation of IL-6 mRNA level preincubated with compound for 30 mins followed by LPS-induction and measured after 6 hrs by qPCR analysis. The class given is functional, cell-based. As to conditions: time 390.0 min. In general terms: In qPCR the cycle at which signal appears reflects the starting amount.

For series [3], the system named is Mus musculus. In words: Antiinflammatory activity against LPS-induced acute lung injury C57BL/6 mouse model assessed as reduction in pulmonary edema by measuring lung wet to dry ratio at 20 mg/kg, IG pretreated with compound for 30 mins followed by LPS-induction and measured after 6 hrs. To be noted: time 390.0 min. The class given is functional, organism-based.

The test system of series [4] is Mus musculus. In words: Antiinflammatory activity against DSS-induced acute colitis C57BL/6 mouse model assessed as reduction in splenomegaly at 5 mg/kg, po pretreated with DSS for 7 days followed by compound addition for every day for 10 days. The format is functional, organism-based. As to conditions: time 10.0 day.
For series [5], the system named is Mus musculus. In words: Antiinflammatory activity against LPS-induced acute lung injury C57BL/6 mouse model assessed as decrease in TNF-alpha mRNA level in lung at 20 mg/kg, IG preincubated with compound for 30 mins followed by LPS-induction and measured after 6 hrs by qPCR analysis. As to conditions: time 390.0 min. The class given is functional, organism-based.

Series [6] concerns Mus musculus. In words: Antiinflammatory activity against DSS-induced acute colitis C57BL/6 mouse model assessed as reduction in IL-6 level in serum at 5 mg/kg, po pretreated with DSS for 7 days followed by compound addition for every day for 10 days by ELISA analysis. The class given is functional, organism-based. As to conditions: time 10.0 day. Background: An ELISA detects its analyte on a solid surface through an enzyme-linked reagent.

The subject of series [7] is Mus musculus. In words: Antiinflammatory activity against DSS-induced acute colitis C57BL/6 mouse model assessed as reduction in mucosal damage in colon at 5 mg/kg, po pretreated with DSS for 7 days followed by compound addition for every day for 10 days by H and E staining based analysis. The format is functional, organism-based. To be noted: time 10.0 day.
The nature of series [8]: Half life in Sprague-Dawley rat at 1 mg/kg, iv measured upto 24 hrs by LC-MS analysis. The class given is ADME, organism-based. To be noted: in vivo.
Series [9] is described as follows: Tmax in Sprague-Dawley rat at 1 mg/kg, iv measured upto 24 hrs by LC-MS analysis. As to conditions: in vivo. The class given is ADME, organism-based.
Series [10] in a line: MRT (0 to t) in Sprague-Dawley rat at 1 mg/kg, iv measured upto 24 hrs by LC-MS analysis. The format is ADME, organism-based. To be noted: in vivo.
Series [11] is described as follows: MRT (0 to t) in Sprague-Dawley rat at 10 mg/kg, po measured upto 24 hrs by LC-MS analysis. The class given is ADME, organism-based. To be noted: in vivo.
The nature of series [12]: Oral bioavailability in Sprague-Dawley rat at 10 mg/kg measured upto 24 hrs by LC-MS analysis. The class given is ADME, organism-based. As to conditions: in vivo.

A word on the half-life: it is how long it takes for the measured level to halve. Low values mean fast loss, high ones slow loss. As usually defined, the Tmax is the time from dosing to the highest level. A word on the MRT last: it is the average time that molecules of a dose stay in the body. One may read the bioavailability as dose-corrected exposure relative to a reference, in per cent. Low values mean little systemic uptake, high ones much systemic uptake.

Structures are written as SMILES. Calls of active or inactive are those of the source. No cut-off for these calls is given here.

On to `O=[N+]([O-])c1ccc(N2CCN(c3ccc(S(=O)(=O)NCc4ccccn4)cc3[N+](=O)[O-])CC2)cc1`, for which the result in [1], in [2], in series [3], in series [4], in [5] and in series [6] was Active. Further, in [7], the result was Active. In series [8], this compound showed a half-life of 1.8 h. Moreover, the Tmax in [9] turned out to be 8.4 min. For the same compound, the MRT last at 24 h in [10] was determined as 1.1 h; in [11] it was 7.2 h. Besides, the bioavailability in series [12] worked out at 10.6%.
